Source: patent US9550803B2, “Method to improve antiviral activity of nucleotide analogue drugs” (priority 2011, dated 2017)
Read-outs that look alike come from different tables or passages of the source.

Assays:
[1] = test system: human cytomegalovirus (HCMV); assay: microbe, parasite or virus in culture; format: cell-based; settings: read-out: Antiviral activity, IC50 HCMV
[2] = test system: cowpox virus; assay: microbe, parasite or virus in culture; format: cell-based; settings: read-out: Antiviral activity, IC50 Cowpox
[3] = test system: vaccinia virus; assay: microbe, parasite or virus in culture; format: cell-based; settings: read-out: Antiviral activity, IC50 Vaccinia
[4] = test system: KB cells
[5] = in vitro; settings: human
[6] = Human betaherpesvirus 5, HFF, 240 h
[7] = Orthopoxvirus vaccinia, HFF, 72 h

## C[C@H](Cn1cnc2c(N)nc(N)nc21)OCP(=O)(O)O [(R)-PMPDAP, reference compound]
[1]
  IC50: > 100000 nM
[2]
  IC50: > 100 µM
[3]
  IC50: > 100 µM
[4]
  CC50: > 100 µM

## Nc1ncnc2c1ncn2C[C@@H](CO)OCP(=O)(O)O [(S)-HPMPA, (S)-9-(3hydroxy-2-phosphonyl-methoxypropyl)adenine, reference compound]
[1]
  IC50: 6000 nM
[2]
  IC50: 20 µM
[3]
  IC50: 2.5 µM
[4]
  CC50: > 100 µM

## Nc1ccn(C[C@@H](CO)OCP(=O)(O)O)c(=O)n1 [(S)-HPMPC, cidofovir, reference compound]
[1]; [6]
  IC50: 300 nM
[2]; Cowpox virus, HFF, 72 h
  IC50: 25 µM
[3]; [7]
  IC50: 10 µM
[5]
  CC50: > 100 µM

## Nc1ncnc2c1ncn2C[C@H]1COP(=O)(O)CO1 [(S)-cHPMPA, reference compound]
[1]
  IC50: 1500 nM
[2]
  IC50: 2.5 µM
[3]
  IC50: 1 µM
[4]
  CC50: > 100 µM

## CC(=NNC(N)=S)c1ccccn1 [Compound 3L, 2-Acetylpyridine thiosemicarbazone, reference compound]
[5]
  CC50: 2 µM

## CCCCCCCCNC(=O)[C@@H](N)Cc1ccc(OP2(=O)CO[C@@H](Cn3cnc4c(N)ncnc43)CO2)cc1 (stereo partly drawn) [Compound 8a, O-[(5S)-5-[(6-Amino-9H-purin-9-yl)methyl]-2-oxido-1,4,2-dioxaphosphinan-2-yl]-N-octyl-(L)-tyrosinamide]
[1]; [6]
  IC50: 300 nM
[2]; Cowpox virus, HFF, 72 h
  IC50: 3 µM
[3]; [7]
  IC50: 1.5 µM
[5]
  CC50: 100 µM

## CCCCCCCCCCCCNC(=O)[C@@H](N)Cc1ccc(OP2(=O)CO[C@@H](Cn3cnc4c(N)ncnc43)CO2)cc1 (stereo partly drawn) [Compound 8b, O-[(5S)-5-[(6-Amino-9H-purin-9-yl)methyl]-2-oxido-1,4,2-dioxaphosphinan-2-yl]-N-dodecyl-(L)-tyrosinamide]
[1]; [6]
  IC50: < 0.001 nM
[5]
  CC50: 15 µM

## CCCCCCCCCCCCCCNC(=O)[C@@H](N)Cc1ccc(OP2(=O)CO[C@@H](Cn3cnc4c(N)ncnc43)CO2)cc1 (stereo partly drawn) [Compound 8c, O-[(5S)-5-[(6-Amino-9H-purin-9-yl)methyl]-2-oxido-1,4,2-dioxaphosphinan-2-yl]-N-tetradecyl-(L)-tyrosinamide]
[1]; [6]
  IC50: < 0.001 nM
[5]
  CC50: 15 µM

## CCCCCCCCCCCCCCCCNC(=O)[C@@H](N)Cc1ccc(OP2(=O)CO[C@@H](Cn3cnc4c(N)ncnc43)CO2)cc1 (stereo partly drawn) [Compound 8d, O-[(5S)-5-[(6-Amino-9H-purin-9-yl)methyl]-2-oxido-1,4,2-dioxaphosphinan-2-yl]-N-hexadecyl-(L)-tyrosinamide]
[1]; [6]
  IC50: < 0.001 nM
[2]; Cowpox virus, HFF, 72 h
  IC50: < 0.1 µM
[3]; [7]
  IC50: 0.006 µM
[5]
  CC50: 11 µM

## CCCCCCCCCCCCCCCCCCNC(=O)[C@@H](N)Cc1ccc(OP2(=O)CO[C@@H](Cn3cnc4c(N)ncnc43)CO2)cc1 (stereo partly drawn) [Compound 8e, O-[(5S)-5-[(6-Amino-9H-purin-9-yl)methyl]-2-oxido-1,4,2-dioxaphosphinan-2-yl]-N-octadecyl-(L)-tyrosinamide]
[1]; [6]
  IC50: < 0.001 nM
[5]
  CC50: 10 µM

## CCCCCCCCCCCCCCCCNC(=O)[C@@H](N)Cc1ccc(OP2(=O)CO[C@@H](Cn3ccc(N)nc3=O)CO2)cc1 (stereo partly drawn) [Compound 8f, O-[(5S)-5-[(4-amino-2-oxopyrimidin-1(2H)-yl)methyl]-2-oxido-1,4,2-dioxaphosphinan-2-yl]-N-hexadecyl-(L)-tyrosinamide]
[1]; [6]
  IC50: < 0.001 nM
[5]
  CC50: 15 µM

## CCCCCCCCNC(=O)[C@@H](N)Cc1ccc(OP(=O)(O)CO[C@H](CO)Cn2cnc3c(N)ncnc32)cc1 [Compound 9a, O-[([[(2S)-1-(6-Amino-9H-purin-9-yl)-3-hydroxypropan-2-yl]oxy]methyl)(hydroxy)-phosphoryl]-N-octyl-(L)-tyrosinamide]
[1]; [6]
  IC50: < 100 nM

## CCCCCCCCCCCCNC(=O)[C@@H](N)Cc1ccc(OP(=O)(O)CO[C@H](CO)Cn2cnc3c(N)ncnc32)cc1 [Compound 9b, O-[([[(2S)-1-(6-Amino-9H-purin-9-yl)-3-hydroxypropan-2-yl]oxy]methyl)(hydroxy)-phosphoryl]-N-dodecyl-(L)-tyrosinamide]
[1]; [6]
  IC50: < 0.001 nM
[5]
  CC50: 15 µM

## CCCCCCCCCCCCCCNC(=O)[C@@H](N)Cc1ccc(OP(=O)(O)CO[C@H](CO)Cn2cnc3c(N)ncnc32)cc1 [Compound 9c, O-[([[(2S)-1-(6-Amino-9H-purin-9-yl)-3-hydroxypropan-2-yl]oxy]methyl)(hydroxy)-phosphoryl]-N-tetradecyl-(L)-tyrosinamide]
[1]; [6]
  IC50: < 0.001 nM
[5]
  CC50: 20 µM

## CCCCCCCCCCCCCCCCNC(=O)[C@@H](N)Cc1ccc(OP(=O)(O)CO[C@H](CO)Cn2cnc3c(N)ncnc32)cc1 [Compound 9d, O-[([[(2S)-1-(6-Amino-9H-purin-9-yl)-3-hydroxypropan-2-yl]oxy]methyl)(hydroxy)-phosphoryl]-N-hexadecyl-(L)-tyrosinamide]
[1]; [6]
  IC50: < 0.001 nM
[2]; Cowpox virus, HFF, 72 h
  IC50: < 0.1 µM
[3]; [7]
  IC50: 0.003 µM
[5]
  CC50: 15 µM

## CCCCCCCCCCCCCCCCCCNC(=O)[C@@H](N)Cc1ccc(OP(=O)(O)CO[C@H](CO)Cn2cnc3c(N)ncnc32)cc1 [Compound 9e, O-[([[(2S)-1-(6-Amino-9H-purin-9-yl)-3-hydroxypropan-2-yl]oxy]methyl)-(hydroxy)-phosphoryl]-N-octadecyl-(L)-tyrosinamide]
[1]; [6]
  IC50: < 0.001 nM
[5]
  CC50: 10 µM

## CCCCCCCCCCCCCCCCNC(=O)[C@@H](N)Cc1ccc(OP(=O)(O)CO[C@H](CO)Cn2ccc(N)nc2=O)cc1 [Compound 9f, O-[([[(2S)-1-(4-amino-2-oxopyrimidin-(2H)-yl)-3-hydroxypropan-2-yl]oxy]methyl)-(hydroxy)phosphoryl]-N-hexadecyl-(L)-tyrosinamide]
[1]
  IC50: < 0.001 nM
[4]
  CC50: 90 µM

## CCCCCCCCNC(=O)[C@@H](N)Cc1ccc(OP(=O)(O)COCCn2cnc3c(N)ncnc32)cc1 [Compound 14a, O-[{[2-(6-Amino-9H-purin-9-yl)ethoxy]methyl}(hydroxy)phosphoryl]-N-octyl-L-tyrosinamide]
[1]; [6]
  IC50: 35000 nM
[2]; Cowpox virus, HFF, 72 h
  IC50: > 100 µM
[3]; [7]
  IC50: 50 µM
[5]
  CC50: 100 µM

## CCCCCCCCCCCCCCCCNC(=O)[C@@H](N)Cc1ccc(OP(=O)(O)COCCn2cnc3c(N)ncnc32)cc1 [Compound 14b, O-[{[2-(6-Amino-9H-purin-9-yl)ethoxy]methyl}(hydroxy)phosphoryl]-N-hexadecyl-L-tyrosinamide]
[1]; [6]
  IC50: 2500 nM
[2]; Cowpox virus, HFF, 72 h
  IC50: 20 µM
[3]; [7]
  IC50: 4 µM
[5]
  CC50: 15 µM

## CCCCCCCCNC(=O)[C@@H](N)Cc1ccc(OP(=O)(O)CO[C@H](C)Cn2cnc3c(N)nc(N)nc32)cc1 [Compound 15a, O-[({[(2R)-1-(2,6-diamino-9H-purin-9-yl)propan-2-yl]oxy}methyl)(hydroxy)phosphoryl]-N-octyl-L-tyrosinamide]
[1]; [6]
  IC50: > 100000 nM
[2]; Cowpox virus, HFF, 72 h
  IC50: > 100 µM
[3]; [7]
  IC50: > 100 µM
[5]
  CC50: > 100 µM

## Nc1nc(O)c2ncn(COC(CO)CO)c2n1 [DHPG, Ganciclovir, reference compound]
[1]; [6]
  IC50: 3000 nM

## Nc1ncnc2c1ncn2CCOCP(=O)(O)O [PMEA, reference compound]
[1]
  IC50: 25000 nM
[2]
  IC50: > 100 µM
[3]
  IC50: > 100 µM
[4]
  CC50: > 100 µM
